Reference: patent US20100291012A1, “ADMINISTRATION OF AMOROLFINE BY IONTOPHORESIS FOR TREATING NAIL DISEASES” (GALDERMA S.A., priority 2008, published 2010)
Where two headings read alike, the source gives them in different places.

Format: in vitro ADME
Conditions: for Nail (summary) / Receptor (summary) / Total nail (summary): 10 mM
Description: The donor solution in experiment 2 consisted of: 0.36% (10 mM) amorolfine HCl in an aqueous solution containing 50 mM NaCl and 0.4% Tween 80. The experiment was performed at pH 3.9 without further adjustment.
The donor solution in experiment 3 consisted of: 0.36% (10 mM) amorolfine HCl in an 40:60 (w:w) Tris buffer:ethanol. The Tris buffer contained 50 mM Tris and 50 mM NaCl at pH 7.4. The pH of the buffer:ethanol solution was ˜7.5. After addition of the drug the pH was ˜5.5.
The donor solution in experiments 4 and 5 consisted of: 1% (28 mM) amorolfine HCl in an 40:60 (w:w) Tris buffer:ethanol. The Tris buffer contained 50 mM Tris and 50 mM NaCl at pH 7.4. The pH of the buffer:ethanol solution was ˜7.5. After addition of the drug the pH was ˜4.7.
Receptor solution: pH 7.4 PBS containing 0.25% Tween 80 (same as Expt. 2).
Diffusion cells: 15 mm diameter Franz diffusion cells were used. The “nail assemblage” was placed in […] the donor and receptor chambers.
Nail device: A nail was glued […] two silicone rings with an internal orifice of 5 mm diameter.
The thickness of the nails was measured with a micrometer. Before hydration nail thickness in the periphery was measured in three places. The central part was not measured at this time to avoid any risk of breaking the nail. The nails were soaked overnight in 50 mM NaCl solution. Because of the increased flexibility of the nail after soaking, it was then possible to measure the thickness in the central part, upper part and lateral corner of the nail (Table 1):
Testing for leaks and iontophoretic circuit: Before starting the iontophoretic experiment, the absence of leaks was tested for each cell. The donor and receptor chambers were filled with donor (without drug) and receptor buffer, respectively, and a 0.1 mA current was passed. In the presence of leaks, the resistance of the circuit is low and the voltage needed to drive the current is very small (˜1V).
The voltages observed at the start of current passage decreased rapidly to settle at (˜30V after approximately 20 minutes.
Once the stability of the circuit with the three cells was assured, the donor compartment was filled with the drug solution and the current re-started.
The intensity of current was 0.1 mA, equivalent to 0.51 mA/cm^2 (area exposed=0.196 cm^2).
One sample was taken after 18 hours of iontophoresis for experiment 2 and 20 hours for experiments 3 and 4. The receptor was then refilled and a passive post-iontophoretic period of 4 hours elapsed before a second sample was obtained.
After recovery of the donor solution, the anode chamber was rinsed twice with ethanol to clean residual solution from the surface of the nail. Then, the nail was cut out of the silicone ring, weighed, dissolved in Soluene®, and assayed for radioactivity.
Experiment 5 is a passive control.

SMILES: CCC(C)(C)c1ccc(CC(C)CN2C[C@@H](C)O[C@@H](C)C2)cc1 (stereo partly drawn) [Amorolfine, cis-4-[3-[4-(1,1-dimethylpropyl)phenyl]-2-methylpropyl]-2,6-dimethylmorpholine]
- effect of iontophoresis on drug delivery into and through the nail: enhances drug delivery into and trough the nail
- flux of amorolfine, comparison of experiments: higher flux
- Nail (summary) (18 h, pH 3.9): 5.1 ± 4.3 nmol/mg
- Receptor (summary) (18 h, pH 3.9): 2.4 ± 0.5 nmol
- Total nail (summary) (18 h, pH 3.9): 38 ± 13 nmol
- Nail (summary) (20 h): 3.2 ± 0.6 nmol/mg
- Receptor (summary) (20 h): 1.7 ± 0.7 nmol
- Total nail (summary) (20 h): 28 ± 3.6 nmol
